# Data as given in article PMC8284454, “In Vitro Profiling of Antitubercular Compounds by Rapid, Efficient, and Nondestructive Assays Using Autoluminescent Mycobacterium tuberculosis” (Antimicrobial Agents and Chemotherapy, 2021).
# Entries after “also recorded” stand apart in the source; their conditions may differ. Read-outs that look alike come from different tables or passages of the source. Marks after values point to notes of the source that are not given here. *1 amine or outer side, *2 acyl side, *3 side chain or, on linkers, in order; H or OH if unused. Where a SMILES comes first, the peptide text is derived from it. Bridges are numbered along the chain shown (N, C = ends). [ ]: non-standard residue; d: D form. The star is where a group is joined. Phe(3R-OH) = O=C([C@@H](N[*:1])[C@H](O[*:3])c1ccccc1)[*:2]; NMeTrp(4-OMe) = CN[C@@H](Cc1c[nH]c2cccc(OC)c12)C(=O)O; NMeaIle = CC[C@@H](C)[C@H](NC)C(=O)O; NMe2Val = CC(C)[C@@H](C(=O)*)N(C)C; NMeT = CN[C@H](C(=O)O)[C@@H](C)O; NMeL = CN[C@@H](CC(C)C)C(=O)O; NMeV = CN[C@H](C(=O)O)C(C)C
# Tests used:
# [1] = tested on: M. tuberculosis H37Rv_LuxABCDE; test: luminescence-based MBC assay (LMBCA) / time-kill; format: cell-based, Mycobacterium tuberculosis; conditions: for change of MBC values over time: over 21 days, luminescence time-kill; for time and/or concentration dependence of bactericidal activity: time-kill curves up to day 21
# [2] = tested on: M. tuberculosis H37Rv_LuxABCDE; test: luminescence-based MIC assay (LMICA); conditions: for MIC (±SD) LMICA: 90% reduction of luminescence, 7 days, 7H12 medium, SD from three independent experiments
# [3] = tested on: J774-internalized M. tuberculosis (H37Rv); test: intracellular activity by luminescence (EC90); format: cell-based, Mycobacterium tuberculosis; conditions: for EC90: RLU; for onset of growth inhibition of internalized M. tuberculosis: early = EC90 obtainable by day 3, late = EC90 obtainable by day 5 or later
# [4] = tested on: M. tuberculosis H37Rv_LuxABCDE; format: cell-based, Mycobacterium tuberculosis; conditions: 1:10,000-fold dilution; for PAE 1× MIC CFU/ml: 3 h exposure at 1× MIC; for PAE 10× MIC CFU/ml: 3 h exposure at 10× MIC; for PAE 100× MIC CFU/ml: 3 h exposure at 100× MIC
# [5] = tested on: M. tuberculosis H37Rv_LuxABCDE; test: microbe, parasite or virus in culture; format: cell-based, Mycobacterium tuberculosis; conditions: day 7, SD from three independent experiments; for MBC: Mycobacterium tuberculosis, read-out: MBC (±SD) via CFU
# [6] = tested on: M. tuberculosis H37Rv_LuxABCDE; test: postantibiotic effect by luminescence (RLU); format: cell-based, Mycobacterium tuberculosis; conditions: 1.5 log10 RLU increase, 1:10,000-fold dilution; for PAE 1× MIC RLU: 3 h exposure at 1× MIC; for PAE 10× MIC RLU: 3 h exposure at 10× MIC; for PAE 100× MIC RLU: 3 h exposure at 100× MIC
# [7] = tested on: M. tuberculosis H37Rv_LuxABCDE; test: microplate alamarBlue assay (MABA) MIC; conditions: 90% reduction of fluorescence, 7 days, 7H12 medium; SD from three independent experiments
# [8] = tested on: J774 infected with M. tuberculosis strain Erdman; conditions: read-out: Literature reported EC90; cited from earlier work
# [9] = tested on: macrophage-internalized M. tuberculosis; conditions: EC90, high-content imaging on day 5; read-out: Literature reported EC90; cited from earlier work
# [10] = tested on: M. tuberculosis H37Rv_LuxABCDE; test: MIC used to set PAE concentrations (Table 4); format: cell-based; conditions: Mycobacterium tuberculosis
# Text: TABLE 4 Comparison of post antibiotic effect values (h) obtained via CFU and RLU measurement for two established TB drugs (rifampin and isoniazid) and two emerging TB lead candidates (ecumicin and rufomycin)^a | column: MIC (μM)
# [11] = day 7, 99% reduction in RLU vs T0, SD from three independent experiments
# [12] = EC90, day 3, J774 macrophages, read-out: Intracellular activity, EC90 (±SD) Day 3
# [13] = EC90, day 5, J774 macrophages, read-out: Intracellular activity, EC90 (±SD) Day 5
# [14] = EC90, day 7, J774 macrophages, read-out: Intracellular activity, EC90 (±SD) Day 7
# [15] = Mycobacterium tuberculosis, 168 h, day 7, 99% reduction in RLU vs T0, SD from three independent experiments, read-out: MBC (±SD) via luminescence
# [16] = Mycobacterium tuberculosis, 336 h, day 14, 99% reduction in RLU vs T0, read-out: MBC (±SD) by luminescence on day 14
# [17] = Mycobacterium tuberculosis, 504 h, day 21, 99% reduction in RLU vs T0, read-out: MBC (±SD) by luminescence on day 21
# [18] = Mycobacterium tuberculosis, H37RV, 72 h, EC90, day 3, J774 macrophages, read-out: Intracellular activity, EC90 (±SD) Day 3
# [19] = Mycobacterium tuberculosis, H37RV, 120 h, EC90, day 5, J774 macrophages, read-out: Intracellular activity, EC90 (±SD) Day 5
# [20] = Mycobacterium tuberculosis, H37RV, 168 h, EC90, day 7, J774 macrophages, read-out: Intracellular activity, EC90 (±SD) Day 7
SMILES,bactericidal or bacteriostatic activity [1],"MBC (±SD) via luminescence [1, 11]",change of MBC values over time [1],time and/or concentration dependence of bactericidal activity [1],MIC (±SD) LMICA [2],"EC90 [3, 12]","EC90 [3, 13]","EC90 [3, 14]",onset of growth inhibition of internalized M. tuberculosis [3],PAE 1× MIC CFU/ml [4],PAE 10× MIC CFU/ml [4],PAE 100× MIC CFU/ml [4],MBC (±SD) via CFU [5],PAE 1× MIC RLU [6],PAE 10× MIC RLU [6],PAE 100× MIC RLU [6],MIC (±SD) MABA [7],EC90 [8],"MBC [1, 15]","MBC [1, 16]",further results
CC[C@@H](C)[C@@H](C(=O)N[C@@H]1C(=O)N(C)[C@@H]([C@@H](C)O)C(=O)N[C@@H](C(C)C)C(=O)N(C)[C@@H](CC(C)C)C(=O)N[C@@H](C(C)C)C(=O)N(C)[C@@H](C(C)C)C(=O)N(C)[C@@H](Cc2c[nH]c3cccc(OC)c23)C(=O)N[C@@H](C(C)C)C(=O)N[C@@H]([C@H](O)c2ccccc2)C(=O)N[C@@H](C(C)C)C(=O)O[C@@H]1C)N(C)C(=O)[C@@H](NC(=O)[C@H](C(C)C)N(C)C)C(C)C [Ecumicin] (NMe2Val-V[NMeaIle]T[NMeT]V[NMeL]V[NMeV][NMeTrp(4-OMe)]V[Phe(3R-OH)]V; ester 3-C),strong bactericidal activity; also recorded: classical bactericidal dose response,0.22 (0.1) μM,decreased,mainly time dependent,0.074 (0.002) μM,0.74 µM,0.57 µM,0.28 µM,early growth inhibition,0 h,10 h,80 h,0.10 (±0.03) μM,0 h,12 h,96 h,0.081 (0.02) μM,~0.12 µM,,,"Toxicity against infected J774, percent inhibition at the highest tested concentration (infected J774; day 7, 6.3 μM): 6.3 (11)* percent; MBC (±SD) by luminescence on day 14 ([1]; day 14, 99% reduction in RLU vs T0): 0.20 (0.09) µM; MBC (±SD) by luminescence on day 21 ([1]; day 21, 99% reduction in RLU vs T0): 0.12 (0.04) µM"
NNC(=O)c1ccncc1 [Isoniazid],,,increase,mainly time dependent,0.24 (0.08) μM,,,,late growth inhibition,0 h,0 h,0 h,,0 h,0 h,0 h,0.30 (0.05) μM,,0.57 µM,2.56 µM,"Toxicity against infected J774, percent inhibition at the highest tested concentration (infected J774; day 7, 8 μM): 8 (0)* percent; MBC [1, 17]: 3.23 µM; EC90 [9]: 1.2 µM; EC90 [3, 18]: > 8 µM; inhibition at 8 µM ([3]; Mycobacterium tuberculosis, H37RV, 72 h, day 3, 8 μM, read-out: percent inhibition at the highest tested concentration, intracellular activity Day 3): 77%; EC90 [3, 19]: 1.05 µM; EC90 [3, 20]: 0.52 µM; PAE 100× MIC CFU/ml ([4]; listed as isoniazid): no observable PAE; MBC [5]: 0.46 µM; MIC [10]: 0.3 µM; PAE 100× MIC RLU ([6]; listed as isoniazid): no observable PAE"
CO[C@H]1/C=C/O[C@@]2(C)Oc3c(C)c(O)c4c(O)c(c(/C=N/N5CCN(C)CC5)c(O)c4c3C2=O)NC(=O)/C(C)=C\C=C\[C@H](C)[C@H](O)[C@@H](C)[C@@H](O)[C@@H](C)[C@H](OC(C)=O)[C@@H]1C [Rifampin],,,decreased,both time and concentration dependent,0.041 (0.005) μM,,,,late growth inhibition,,30 h,58 h,,,26 h,92 h,0.060 (0.01) μM,,0.6 µM,0.48 µM,"Toxicity against infected J774, percent inhibition at the highest tested concentration (infected J774; day 7, 2 μM): 2 (0)* percent; MBC [1, 17]: 0.4 µM; EC90 [9]: 2.9 µM; EC90 [3, 18]: > 2 µM; inhibition at 2 µM ([3]; Mycobacterium tuberculosis, H37RV, 72 h, day 3, 2 μM, read-out: percent inhibition at the highest tested concentration, intracellular activity Day 3): 60%; EC90 [3, 19]: 1.55 µM; EC90 [3, 20]: 0.64 µM; MBC [5]: 0.4 µM; MIC [10]: 0.04 µM"
C/C=C/C[C@@H]1NC(=O)[C@H](CC(C)C)N2C(=O)[C@H](C[C@H](C)C2O)N(C)C(=O)[C@H](C)NC(=O)[C@H](Cc2ccc(O)c([N+](=O)[O-])c2)NC(=O)[C@H](CC(C)C)N(C)C(=O)[C@H](Cc2cn(C(C)(C)C3CO3)c3ccccc23)NC1=O (stereo partly drawn) [Rufomycin],bacteriostatic,>1^c μM,decreased,mainly time dependent,0.010 (0.001) μM,> 10 µM,3.06 µM,1.52 µM,,0 h,48 h,110 h,>1^b μM,0 h,40 h,96 h,0.032 (0.012) μM,~0.1 µM,,,"Toxicity against infected J774, percent inhibition at the highest tested concentration (infected J774; day 7, 10 μM): 10 (8)* percent; MBC ([1]; day 7, 99% reduction in RLU vs T0, SD from three independent experiments, read-out: MBC (±SD) via luminescence): > 1 µM; MBC ([1]; day 14, 99% reduction in RLU vs T0, read-out: MBC (±SD) by luminescence on day 14): > 1 µM; MIC lower than ecumicin ([2]; ratio of MICs of Table 1): 7 fold; percent inhibition at the highest tested concentration, intracellular activity Day 3 ([3]; day 3, 10 μM): 69%"
